The target of one assay is Factor XIa (Homo sapiens, UniProt P03951). Put plainly: Factor XIa inhibition assay utilizing a fluorophore-quencher pair peptide substrate (FLINT). The assay is classed as biochemical. The note with it: for Ki: read-out: FXIa Ki; for IC50: read-out: FXIa IC50. An excerpt:
Biological Example 1: Factor XIa Inhibition Assay Utilizing a Fluorophore-Quencher Pair Peptide Substrate
A fluorescence intensity (FLINT) based assay was used to monitor inhibition of Factor XIa. The peptide substrate, 5Fam-KLTRAETV-K5Tamra (purchased from New England Peptide) was chosen based on the FXI sequence. Conversion of zymogen FXI to its activated form, FXIa, occurs by proteolytic cleavage by […] at two sites, Arg146 and Arg180. The custom peptide used in this assay was based on the Arg146 cleavage site of FXI. The peptide substrate was designed with a fluorophore-quencher pair, where the fluorescence is quenched until FXIa cleaves the 8-mer peptide after the Arg residue.
The Factor XIa FLINT assay was used with the following 5Fam-KLTRAETV-K5Tamra assay buffer: 50 mM Tris, pH 7.5, 100 mM NaCl, 5 mM CaCl2), 0.1 mg/mL BSA, 0.03% CHAPS. Assay buffer was prepared by mixing all ingredients fresh. 5Fam-KLTRAETV-K5Tamra peptide substrate was first prepared at 10 mM in 100% DMSO, then diluted to 3 mM in 100% DMSO. Assay buffer was then added directly to the 3 mM stock of substrate to prepare the 30 μM 2× working concentration (15 μM final concentration). The 2× Factor XIa stock solution was prepared by diluting 6.562 μM stock in 1× assay buffer for a […].
Test compound(s) were run in an 11-point, 3-fold serial dilution with a final top compound concentration of 100 nM. Final DMSO in assay was 2%. FXIa was preincubated with compound for 30-minutes and then substrate was added to initiate the reaction. The assay was run with kinetic (KIN) reads at 5 min intervals over 30 minutes. The time course was linear using […] FXIa greater than 30 minutes. More specifically, the assay was run as follows: • 100 nL of 0.01 mM test compound was dispensed into black 384-well non-binding Greiner BioOne 784900 plate for 0.1 μM final concentration; • 5 μL of 1× assay buffer was dispensed to column 24 (low control) and 5 μL 2× Factor XIa solution was dispensed to columns 1-23 (column 23 high control); • the plate was centrifuged with a “cover” plate at 500 rpm for 1 min • the plate was pre-incubated for 30 minutes at room temperature with plate covered; • 5 μL of 2×5Fam-KLTRAETV-K5Tamra peptide substrate was dispensed into the entire plate, columns 1-24; • the plate was centrifuged with a “cover” plate at 500 rpm for 1 min; • the plate was read monitoring fluorescence intensity on the BMG PHERAStar at room temperature, using fluorescence module 485 nm/520 nm.
Percent inhibition (IC50) curves were generated per compound tested, and data was analyzed using a 4-parameter logistic fit using GeneData Screener. The relative fluorescence unit (RFU) values were normalized to percent inhibition using the following equation: % inhibition=((HC−LC)−(compound−LC)/(HC−LC))*100
where LC−low control=mean signal of no Factor XIa or 100% inhibition of Factor XIa; HC−high control=mean signal of Factor XIa+5Fam-KLTRAETV-K5Tamra peptide substrate with DMSO only.
An 11-point dose response curve for the test compound(s) was generated using GENDATA to determine IC50 value based on the following equation: Y=Bottom+(Top−Bottom)/(1+10^((log IC50−X)*HillSlope))
where Y is the % inhibition in the presence of X inhibitor concentration, Top=high control=mean signal of Factor XIa+5Fam-KLTRAETV-K5Tamra peptide substrate with DMSO only; Bottom=low control−mean signal of no Factor XIa or 100% inhibition of Factor XIa; HillSlope−Hill coefficient; and IC50=concentration of compound with 50% inhibition in relation to top/high control.
(§1) Representative compounds of formula (I) of the present invention were tested according to the procedure described in Biological Example 1 and Biological Example 2 above, with results as listed in Table 3, below.

The next assay addresses human plasma kallikrein (Homo sapiens, UniProt P03952). The experiment in a line: Kallikrein inhibition assay utilizing a quenched AMC peptide substrate (FLINT). The assay is classed as biochemical. The note with it: 30 min preincubation, 50 μM Z-Gly-Pro-Arg-AMC, 2 nM kallikrein.
Text: Biological Example 2: Kallikrein Inhibition Assay Utilizing a Quenched AMC Peptide Substrate
A fluorescence intensity (FLINT) based assay was used to monitor inhibition of human plasma kallikrein. The peptide substrate, Z-Gly-Pro-Arg-AMC (Purchased from Bachem; Catalog #1-1150) was chosen based on its relatively low KM for kallikrein which enables running the assay at lower substrate concentrations to control background fluorescence.
The Kallikrein FLINT assay was used with the following Z-Gly-Pro-Arg-AMC assay buffer: 50 mM Tris, pH 7.5, 100 mM NaCl, 5 mM CaCl2), 0.1 mg/mL BSA, 0.03% CHAPS. Assay buffer was prepared by mixing all ingredients fresh. 2× Z-Gly-Pro-Arg-AMC peptide substrate was prepared by diluting 10 mM stock into 1× assay buffer for a 100 μM working concentration (50 μM final concentration). The 2× kallikrein stock solution was prepared by diluting 14.76 μM stock in 1× assay buffer for a 4 nM working stock solution (2 nM final concentration).
Test compound(s) were run in an 11-point, 3-fold serial dilution with a final top compound concentration of 1 μM. Final DMSO in assay was 2%. Plasma kallikrein was pre-incubated for 30-minute with compound and then 50 μM substrate was added to initiate the reaction. The assay was run with kinetic (KIN) reads at 5 min intervals over 30 minutes. The time course was linear using 2 nM kallikrein greater than 30 minutes. More specifically, the assay was run as follows: • 100 nL of 0.1 mM test compound was dispensed into black 384-well non-binding Greiner BioOne 784900 plate for 1 μM final concentration; • 5 μL of 1× assay buffer was dispensed to columns 24 (low control) and 5 μL 2× human kallikrein enzyme solution was dispensed to columns 1-23 (column 23 high control); • the plate was centrifuged with a “cover” plate at 500 rpm for 1 min • the plate was pre-incubated for 30 minutes at room temperature with plate covered; • 5 μL of 2× Z-Gly-Pro-Arg-AMC peptide substrate was dispensed into the entire plate, columns 1-24; • the plate was centrifuged with a “cover” plate at 500 rpm for 1 min; the plate was read monitoring fluorescence intensity on the BMG PHERAStar at room temperature, using fluorescence module 340 nm/440 nm.
Percent inhibition (IC50) curves were generated per compound tested, and data was analyzed using a 4-parameter logistic fit using GeneData Screener. The relative fluorescence unit (RFU) values were normalized to percent inhibition using the following equation: % inhibition=((HC−LC)−(compound−LC)/(HC−LC))*100 where LC—low control=mean signal of human kallikrein enzyme or 100% inhibition of human kallikrein enzyme; HC—high control=mean signal of […]+Z-Gly-Pro-Arg-AMC peptide substrate with DMSO only.
An 11-point dose response curve for the test compound(s) was generated using GENDATA to determine IC50 value based on the following equation: Y=Bottom+(Top−Bottom)/(1+10^((log IC50−X)*HillSlope)) • where Y is the % inhibition in the presence of X inhibitor concentration, Top=high control=mean signal of human kallikrein enzyme+Z-Gly-Pro-Arg-AMC peptide substrate with DMSO only; Bottom=low control−mean signal of no human kallikrein enzyme or 100% inhibition of human kallikrein enzyme; HillSlope—Hill coefficient; and IC50=concentration of compound with 50% inhibition in relation to top/high control.
as §1

Setting [1] is: cells that print μM themselves in the nM column.
The mark [2] stands for this setting: cells that print μM themselves in the nM column, same assay conditions.
Setting [3] is: 30 min preincubation, 5Fam-KLTRAETV-K5Tamra substrate 15 μM final, kinetic reads.

Ki and IC50 data for nine molecules are collected here from patent US11897880B2, “7,8-dihydrobenzo[e]pyrido[3,4-c]azocine-2,5(3H,6H)-dione derivatives useful as a factor XIa inhibitors” (Janssen Pharmaceutica NV, priority 2021, dated 2024).

Where two headings read alike, the source gives them in different places.

Sequence of human plasma kallikrein (P03952 391-638 limits assumed): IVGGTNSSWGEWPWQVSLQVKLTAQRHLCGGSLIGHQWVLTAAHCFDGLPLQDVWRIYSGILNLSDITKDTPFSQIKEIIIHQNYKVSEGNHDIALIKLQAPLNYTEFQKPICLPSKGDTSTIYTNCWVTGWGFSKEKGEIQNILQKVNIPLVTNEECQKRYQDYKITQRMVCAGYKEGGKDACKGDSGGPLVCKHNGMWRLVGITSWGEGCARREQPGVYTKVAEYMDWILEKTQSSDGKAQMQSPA
Sequence of human plasma kallikrein (P03952 20-390 partner limits assumed): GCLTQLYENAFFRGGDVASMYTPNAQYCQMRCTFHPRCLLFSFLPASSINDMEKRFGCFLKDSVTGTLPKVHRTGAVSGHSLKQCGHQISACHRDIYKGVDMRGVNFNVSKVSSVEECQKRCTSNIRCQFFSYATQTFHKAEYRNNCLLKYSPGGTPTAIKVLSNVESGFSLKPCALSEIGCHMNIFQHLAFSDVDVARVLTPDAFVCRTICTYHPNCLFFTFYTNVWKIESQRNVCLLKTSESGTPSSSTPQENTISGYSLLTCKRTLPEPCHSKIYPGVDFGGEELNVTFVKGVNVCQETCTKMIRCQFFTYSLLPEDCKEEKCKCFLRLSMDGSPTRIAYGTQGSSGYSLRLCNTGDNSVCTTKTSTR
Sequence of Factor XIa (P03951 388-625 limits assumed): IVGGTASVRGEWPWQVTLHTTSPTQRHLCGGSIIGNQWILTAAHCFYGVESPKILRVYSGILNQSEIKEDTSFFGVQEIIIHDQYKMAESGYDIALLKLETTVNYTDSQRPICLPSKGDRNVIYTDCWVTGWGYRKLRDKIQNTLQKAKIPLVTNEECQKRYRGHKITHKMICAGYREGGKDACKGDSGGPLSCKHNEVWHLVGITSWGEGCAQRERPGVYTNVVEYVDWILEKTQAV
Sequence of Factor XIa (P03951 19-387 partner limits assumed): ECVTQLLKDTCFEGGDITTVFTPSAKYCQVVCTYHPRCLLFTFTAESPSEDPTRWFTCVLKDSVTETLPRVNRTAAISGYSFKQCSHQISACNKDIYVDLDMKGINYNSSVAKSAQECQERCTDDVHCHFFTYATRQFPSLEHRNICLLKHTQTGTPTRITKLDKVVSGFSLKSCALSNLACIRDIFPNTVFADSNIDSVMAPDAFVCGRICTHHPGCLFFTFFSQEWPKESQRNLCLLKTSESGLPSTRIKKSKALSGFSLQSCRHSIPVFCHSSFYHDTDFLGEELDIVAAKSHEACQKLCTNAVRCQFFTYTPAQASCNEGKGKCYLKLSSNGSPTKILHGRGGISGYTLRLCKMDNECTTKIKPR

In general, Ki refers to a measure of affinity in units of concentration, obtained from inhibition or displacement. As usually defined, the IC50 is the concentration that gives 50% inhibition. For the molecule `Nc1ccc(-c2cnc([C@@H]3CCc4c5c(cc(=O)n43)-c3c(ccc(Cl)c3F)CC3(CC3)N(CCO)C5=O)[nH]2)c(F)n1` (single isomer, unassigned) [Compound 9, (S*)-12-(5-(6-amino-2-fluoropyridin-3-yl)-1H-imidazol-2-yl)-7-chloro-8-fluoro-2-(2-hydroxyethyl)-13,14-dihydro-2H-spiro[benzo[5,6]azocino[4,3-g]indolizine-3,1′-cyclopropane]-1,10(4H,12H)-dione], at Factor XIa (setting [1]), the Ki was 3.29 µM. Moreover, the IC50 at Factor XIa (setting [2]) is 6.58 µM; against human plasma kallikrein, greater than 10 µM.

Regarding `Nc1ccc(-c2cnc([C@H]3CCc4c5c(cc(=O)n43)-c3c(ccc(Cl)c3F)CC3(CC3)N(CCO)C5=O)[nH]2)c(F)n1` (single isomer, unassigned) [Compound 10, (R*)-12-(5-(6-amino-2-fluoropyridin-3-yl)-1H-imidazol-2-yl)-7-chloro-8-fluoro-2-(2-hydroxyethyl)-13,14-dihydro-2H-spiro[benzo[5,6]azocino[4,3-g]indolizine-3,1′-cyclopropane]-1,10(4H,12H)-dione], the values for the IC50 at Factor XIa (setting [2]) and against human plasma kallikrein were 1.85 µM and greater than 10 µM, respectively. In addition, on Factor XIa, the Ki is 0.926 µM.

As to `Nc1ccc(-c2cnc([C@@H]3CCc4c5c(cc(=O)n43)-c3c(ccc(Cl)c3F)CC3(CC3)N(CCO)C5=O)[nH]2)c(F)n1` (single isomer, unassigned) [Compound 11, (S*)-12-(5-(6-amino-2-fluoropyridin-3-yl)-1H-imidazol-2-yl)-7-chloro-8-fluoro-2-(2-hydroxyethyl)-13,14-dihydro-2H-spiro[benzo[5,6]azocino[4,3-g]indolizine-3,1′-cyclopropane]-1,10(4H,12H)-dione], the results for the IC50 at Factor XIa (setting [2]) and on human plasma kallikrein were 1.17 µM and greater than 10 µM, respectively. Besides, the Ki at Factor XIa is 0.588 µM.

Consider `Nc1ccc(-c2cnc([C@H]3CCc4c5c(cc(=O)n43)-c3c(ccc(Cl)c3F)CC3(CC3)N(CCO)C5=O)[nH]2)c(F)n1` (single isomer, unassigned) [Compound 12, (R*)-12-(5-(6-amino-2-fluoropyridin-3-yl)-1H-imidazol-2-yl)-7-chloro-8-fluoro-2-(2-hydroxyethyl)-13,14-dihydro-2H-spiro[benzo[5,6]azocino[4,3-g]indolizine-3,1′-cyclopropane]-1,10(4H,12H)-dione], for which the IC50 on Factor XIa (setting [3]) is 0.0692 µM; against human plasma kallikrein, greater than 10 µM. Besides, the Ki on Factor XIa was found to be 0.0346 µM.

As for `O=C1NC2(CC2)Cc2ccc(Cl)c(F)c2-c2cc(=O)n3c(c21)CC[C@H]3c1ncc(-c2ccc3[nH]ccc3c2)[nH]1` (single isomer, unassigned) [Compound 13, (S*)-12-(5-(1H-indol-5-yl)-1H-imidazol-2-yl)-7-chloro-8-fluoro-13,14-dihydro-2H-spiro[benzo[5,6]azocino[4,3-g]indolizine-3,1′-cyclopropane]-1,10(4H,12H)-dione], the IC50 at Factor XIa (setting [3]) stood at 0.002 µM; on human plasma kallikrein it was 0.07 µM. Also, at Factor XIa, the Ki worked out at 0.001 µM.

For the molecule `O=C1NC2(CC2)Cc2ccc(Cl)c(F)c2-c2cc(=O)n3c(c21)CC[C@@H]3c1ncc(-c2ccc3[nH]ccc3c2)[nH]1` (single isomer, unassigned) [Compound 14, (R*)-12-(5-(1H-indol-5-yl)-1H-imidazol-2-yl)-7-chloro-8-fluoro-13,14-dihydro-2H-spiro[benzo[5,6]azocino[4,3-g]indolizine-3,1′-cyclopropane]-1,10(4H,12H)-dione], the Ki on Factor XIa (setting [1]) came out at 1.02 µM. Further, the IC50 was 2.03 µM on Factor XIa (setting [2]) and greater than 10 µM against human plasma kallikrein.

For the molecule `O=C1NC2(CC2)Cc2ccc(Cl)c(F)c2-c2cc(=O)n3c(c21)CC[C@H]3c1ncc(-c2ccc3[nH]ccc3c2)[nH]1` (single isomer, unassigned) [Compound 16, (S*)-12-(5-(1H-indol-5-yl)-1H-imidazol-2-yl)-7-chloro-8-fluoro-13,14-dihydro-2H-spiro[benzo[5,6]azocino[4,3-g]indolizine-3,1′-cyclopropane]-1,10(4H,12H)-dione], the IC50 on Factor XIa (setting [2]) was 1.07 µM; against human plasma kallikrein it was greater than 10 µM. Also, the Ki on Factor XIa turned out to be 0.535 µM.

In the case of `O=C1NC2(CC2)Cc2ccc(Cl)c(F)c2-c2cc(=O)n3c(c21)CC[C@@H]3c1ncc(-c2ccc3[nH]ccc3c2)[nH]1` (single isomer, unassigned) [Compound 17, (R*)-12-(5-(1H-indol-5-yl)-1H-imidazol-2-yl)-7-chloro-8-fluoro-13,14-dihydro-2H-spiro[benzo[5,6]azocino[4,3-g]indolizine-3,1′-cyclopropane]-1,10(4H,12H)-dione], the IC50 at Factor XIa (setting [2]) was 1.59 µM; against human plasma kallikrein, greater than 10 µM. The Ki on Factor XIa stood at 0.796 µM.

Regarding `CC1(C)Cc2ccc(Cl)c(F)c2-c2cc(=O)n3c(c2C(=O)N1)CC[C@H]3c1ncc(-c2ccc(N)nc2F)[nH]1` (single isomer, unassigned) [Compound 20, (S*)-12-(5-(6-amino-2-fluoropyridin-3-yl)-1H-imidazol-2-yl)-7-chloro-8-fluoro-3,3-dimethyl-3,4,13,14-tetrahydrobenzo[5,6]azocino[4,3-g]indolizine-1,10(2H,12H)-dione], at Factor XIa (setting [1]), the Ki is 3.83 µM. Besides, the values for the IC50 on Factor XIa (setting [2]) and against human plasma kallikrein were 7.65 µM and greater than 10 µM, respectively.
